Experimental data from US5112833A, “1-azaindolizine derivatives, synthetic intermediates thereof and antiallergic agents containing 1-azaindolizine derivatives” (Zenyaku Kogyo Kabushiki Kaisha, priority 1988, dated 1992).
Structures can show the parent of a compound that is named as a salt.

Assays:
[1] = system: homologous passive cutaneous anaphylaxis (PCA) reaction; test: Inhibition of homologous passive cutaneous anaphylaxis (PCA) reaction; type: in vivo, male Wistar rats; settings: Rattus norvegicus, 0.5 h, rats, read-out: Inhibition (%) of leaked amount of dye in PCA reaction; for inhibition in vivo at 20 mg/kg: intravenous, immediately before ovalbumin challenge, *P < 0.02, **P < 0.005
Description: The antiallergic action of the compounds of the present invention obtained by the above-mentioned preparation process was examining by the following inhibition test of homologous passive cutaneous anaphylaxis (PCA) reaction on rats.
Antiserum was obtained from rats that were immunized with ovalbumin according to the method of Mota [Immunology, 7, 681-699 (1964)]. The antiserum was diluted with physiological saline to make PCA reaction of approximately 10-15 mm in diameter. Groups of 5 male Wistar rats, 8 weeks old and weighing between 200-250 g, were passively sensitized with 0.1 ml of the diluted antiserum injected intradermally in the shaved area on the back. Fourty-eight hours after the sensitization, each above sample dissolved into physiological saline was injected into the rats intravenously via tail vein. Immediately after injection of the sample, rats were challenged with the physiological saline solution containing ovalbumin (25 mg/kg/head) and Evans blue (12.5 mg/kg/head) intravenously via tail vein so as to generate PCA reaction. Thirty minutes after the accomplishment of the challenge, the rats were exsanguinated and removed the skins from the back. The amount of the dye leaked out of the vessels was measured by the method of Katayama et al. [Microbiol. Immunol. 22, 89-101 (1978)].
The effects of samples on PCA reaction were expressed as percentage of inhibition of the leaked amount of the dye calculated by the following equation: [formula] where C is the mean leaked amount of the dye in control group, S is the mean leaked amount of dye in sample treated group. The results of the experiments were shown in Table 1, which included the effect of DSCG used as a positive control.

[2] = Acute toxicity test (LD50); settings: mouse, in vivo; intravenous via tail vein, male ICR mice, 10 days' observation
Description: Acute toxicity tests of the compounds of the present invention were carried out as described below. Groups of 5 male ICR mice, 5 weeks old and weighing 30±5 g, were used. The samples dissolved in physiological saline were injected intravenously via tail vein of the mice. Each LD50 was determined through 10 days' observation.

Structure (SMILES) | inhibition in vivo at 10 mg/kg ([1]; iv, 10 mg/kg, positive control, **P < 0.005) [%] | inhibition in vivo at 20 mg/kg [1] [%] | LD50 at 240 h [2] [mg/kg]
O=C(O)c1cc(=O)c2c(OCC(O)COc3cccc4oc(C(=O)O)cc(=O)c34)cccc2o1 [DSCG, disodium chromoglycate, reference compound] | 75 | – | –
COc1nc2ccc(C)cn2c1C=C(C#N)C(=O)O [Sample 1, Sodium salt of 3-(2-carboxy-2-cyanovinyl)-2-methoxy-6-methylimidazo[1,2-a]pyridine] | – | 52.6 | –
Cc1cccn2c(C=C(C#N)C(=O)O)c(OC(C)C)nc12 [Sample 2, Sodium salt of 3-(2-carboxy-2-cyanovinyl)-2-isopropoxy-8-methylimidazo[1,2-a]pyridine] | – | 68.4 | ~150
COc1cccn2c(C=C(C#N)C(=O)O)c(OC(C)C)nc12 [Sample 3, Sodium salt of 3-(2-carboxy-2-cyanovinyl)-2-isopropoxy-8-methoxyimidazo[1,2-a]pyridine] | – | 90 | ~350
CCOc1cccn2c(C=C(C#N)C(=O)O)c(OC(C)C)nc12 [Sample 4, Sodium salt of 3-(2-carboxy-2-cyanovinyl)-8-ethoxy-2-isopropoxyimidazo[1,2-a]pyridine] | – | 85.4 | –
CC(C)Oc1nc2c(OC(C)C)cccn2c1C=C(C#N)C(=O)O [Sample 5, Sodium salt of 3-(2-carboxy-2-cyanovinyl)-2,8-diisopropoxyimidazo[1,2-a]pyridine] | – | 94.6 | ~220
CCCCOc1nc2c(C)cccn2c1C=C(C#N)C(=O)O [Sample 6, Sodium salt of 2-butoxy-3-(2-carboxy-2-cyanovinyl)-8-methylimidazo[1,2-a]pyridine] | – | 69.8 | –
Cc1ccn2c(C=C(C#N)C(=O)O)c(OCC(C)C)nc2c1 [Sample 7, Sodium salt of 3-(2-carboxy-2-cyanovinyl)-2-isobutoxy-7-methylimidazo[1,2-a]pyridine] | – | 65.8 | –
CCC(C)Oc1nc2c(C)cccn2c1C=C(C#N)C(=O)O (stereo not drawn) [Sample 8, Sodium salt of 3-(2-carboxy-2-cyanovinyl)-8-methyl-2-secbutoxyimidazo[1,2-a]pyridine] | – | 80.4 | –
CCOc1cccn2c(C=C(C#N)C(=O)O)c(OC(C)CC)nc12 (stereo not drawn) [Sample 9, Sodium salt of 3-(2-carboxy-2-cyanovinyl)-8-ethoxy-2-secbutoxyimidazo[1,2-a]pyridine] | – | 75.3 | –
CCC(C)Oc1nc2c(OC(C)C)cccn2c1C=C(C#N)C(=O)O (stereo not drawn) [Sample 10, Sodium salt of 3-(2-carboxy-2-cyanovinyl)-8-isopropoxy-2-secbutoxyimidazo[1,2-a]pyridine] | – | 92.5 | –
CCCCCCOc1nc2c(C)cccn2c1C=C(C#N)C(=O)O [Sample 11, Sodium salt of 3-(2-carboxy-2-cyanovinyl)-2-hexyloxy-8-methylimidazo[1,2-a]pyridine] | – | 75.7 | –
C=CCCOc1nc2c(C)cccn2c1C=C(C#N)C(=O)O [Sample 12, Sodium salt of 2-(3-butenyloxy)-3-(2-carboxy-2-cyanovinyl)-8-methylimidazo[1,2-a]pyridine] | – | 68.9 | –
Cc1cccn2c(C=C(C#N)C(=O)O)c(OCCCO)nc12 [Sample 13, Sodium salt of 3-(2-carboxy-2-cyanovinyl)-2-(3-hydroxypropoxy)-8-methylimidazo[1,2-a]pyridine] | – | 64.3 | –
CC(=O)NCCCOc1nc2c(C)cccn2c1C=C(C#N)C(=O)O [Sample 14, Sodium salt of 2-(3-acetylaminoproxy)-3-(2-carboxy-2-cyanovinyl)-8-methylimidazo[1,2-a]pyridine] | – | 74.8 | –
Cc1cccn2c(C=C(C#N)C(=O)O)c(OCC3CC3)nc12 [Sample 15, Sodium salt of 3-(2-carboxy-2-cyanovinyl)-2-cyclopropylmethoxy-8-methylimidazo[1,2-a]pyridine] | – | 61.8 | –
COCCOc1nc2c(C)cccn2c1C=C(C#N)C(=O)O [Sample 16, Sodium salt of 3-(2-carboxy-2-cyanovinyl)-2-(2-methoxyethoxy)-8-methylimidazo[1,2-a]pyridine] | – | 68.9 | –
Cc1cccn2c(C=C(C#N)C(=O)O)c(OCCCC#N)nc12 [Sample 17, Sodium salt of 3-(2-carboxy-2-cyanovinyl)-2-(3-cyanoproxy)-8-methylimidazo[1,2-a]pyridine] | – | 71.3 | –
